Source: patent US7259142B2, “Redox-stable, non-phosphorylated cyclic peptide inhibitors of SH2 domain binding to target protein, conjugates thereof, compositions and methods of synthesis and use” (The United States of America, represented by the Secretary, …, priority 1999, dated 2007)
Like-named read-outs stand apart in the source and are kept apart here. Where a SMILES comes first, the peptide text is derived from it. Bridges are numbered along the chain shown (N, C = ends). Where no end group is shown, it is not given here. [ ]: non-standard residue; d: D form. pY = N[C@@H](Cc1ccc(OP(=O)(O)O)cc1)C(=O)O; Gla = N[C@@H](CC(C(=O)O)C(=O)O)C(=O)O

Legend:
[1] = target: T1, p185^erbB-2/Grb2 association in MDA-MB-453 cells (Homo sapiens, UniProt P62993); experiment: Inhibition of intracellular p185erbB-2/Grb2 association in whole MDA-MB-453 cells; format: cell-based; details: for concentration of effective inhibition of p185erbB-2/Grb2 association in cells: whole MDA-MB-453 cells treated 3 hrs in serum-free IMEM, inhibitor 0.1-50 μM
T1 construct: endogenous in cells; host or cells: MDA-MB-453 breast cancer cells
Procedure: The compound of Example 1, and the conjugate of Example 12, were tested in MDA-MB-453 cells (breast cancer cells that overexpress p185^erbB-2 receptor) at inhibitor concentrations of 0.1, 0.4, 2, 10 and 50 μM. In the control experiment, no inhibitor was used. The cells were treated for 3 hrs in serum-free IMEM medium. The cells were washed twice with ice-cold PBS to remove the residual inhibitory compound that was not internalized.
(§1) Cell lysates were prepared using 1% Triton X-100 in PBS containing 0.2 mM NaVO4. Grb2 and associated Grb2-binding proteins were immunoprecipitated from each lysate (500 μg) with anti-Grb2 antibodies and collected using protein A Sepharose using methods previously described. Immunoprecipitated proteins were separated by SDS-PAGE on 8-16% gradient gels (Novex). pTyr-containing proteins were detected by Western blotting using anti-phosphotyrosine antibodies (Upstate Biotechnology Inc.). Previous experiments have shown that a major tyrosine phosphorylated protein in MDA-MB-453 cells is p185^erbB-2, which is overexpressed as a consequence of gene amplification.
In these whole cell assays the agents were applied to the cell culture media of MDA-MB-453 cells. These conditions required that compounds transit through the cell membrane.

[2] = target: recombinant GST-Grb2 SH2 protein (Homo sapiens, UniProt P62993); experiment: Biacore Surface Plasmon Resonance competitive binding assay against immobilized SHC(pTyr-317)-9-mer phosphopeptide; details: Biacore SPR, GST-Grb2-SH2 150-250 nM, PBS pH 7.4; mean of at least two independent experiments; read-out: IC50 (concentration at which half-maximal competition was observed)
Chain of recombinant GST-Grb2 SH2 protein (P62993 60-152 limits assumed): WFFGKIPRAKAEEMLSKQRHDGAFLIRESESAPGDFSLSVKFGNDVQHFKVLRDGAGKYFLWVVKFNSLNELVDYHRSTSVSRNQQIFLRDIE
Procedure: The competitive binding affinity of the present inventive compounds was assessed using Biacore Surface Plasmon Resonance (SPR) methods utilizing a Biacore 2000 instrument. The concentrations at which half-maximal competition was observed (IC50) were determined by mixing the inhibitor with recombinant GST-Grb2 SH2 protein and measuring the amount of competitive binding at equilibrium to an immobilized (via biotin conjugation to streptavidin coated surface of the Biacore sensor chip SA; 2 nM concentration) SHC(pTyr-317)-9-mer phosphopeptide in a manner similar to that reported previously (Oligino et al. (1997), supra). Specifically, competitive binding assays were carried out at 5 μl/min flow rate, with GST-Grb2-SH2 (150-250 nM) and a cyclic peptide inhibitor (10 nM-2 mM) in phosphate-buffered saline (PBS), pH 7.4, containing 0.01% P-20 surfactant (Biacore, Inc., Piscataway, N.J.) for a total of 10 min. The change in response units (RU) at equilibrium was measured from the absorption profiles and the percent of control (no added peptide) was calculated. […] The results represent the mean value of at least two independent experiments.

[3] = target: T2, p185^erbB-2 receptor association with the Grb2 adapter protein (MDA-MB-453 cell lysates) (Homo sapiens, UniProt P62993); experiment: Inhibition of p185erbB-2 interaction with Grb2 in cell homogenates (anti-Grb2 immunoprecipitation, anti-pTyr Western blot); format: biochemical
T2 construct: endogenous in cells; host or cells: MDA-MB-453 breast cancer cells
Procedure: as §1, with “Cell lysates were prepared from the serum-treated erbB-2-overexpressing breast cancer cell line MDA-MB-453 using 1% Triton X-100 in PBS containing 0.2 mM NaVO4. Lysates were incubated with the present inventive cyclic peptide inhibitors specified in Example 1 and Example 12, at concentrations of 0.1, 0.4, 2, 10 and 50 μM. No inhibitor was used as a control. Cell” for “Cell”, “amplification. […] A dose-dependent inhibition of the p185^erbB-2 receptor association with the Grb2 adapter protein was observed.” for “amplification.”

[4] = target: SH2 domain of Grb2 (Homo sapiens, UniProt P62993); details: background, previously reported values; read-out: IC50 (receptor affinity); cited from earlier work
Chain of SH2 domain of Grb2 (P62993 60-152 limits assumed): as above

| IC50 [2] [nM] | IC50 ([3]; MDA-MB-453 cell lysates, inhibitor 0.1-50 μM, read-out: half-maximal inhibition of p185erbB-2/Grb2 protein association) [nM] | Compound | concentration of effective inhibition of p185erbB-2/Grb2 association in cells [1] [µM] | reduction in the associated p185erbB-2 bound to Grb2 in cells ([1]; whole MDA-MB-453 cells pre-treated with increasing amounts) | IC50 [3] [nM] | IC50 [4] [nM] |
| --- | --- | --- | --- | --- | --- | --- |
| 640 ± 100 | 2000 | CSCC[C@@H]1NC(=O)CNC(=O)[C@H](C(C)C)NC(=O)[C@H](CC(N)=O)NC(=O)[C@H](CCC(=O)O)NC(=O)[C@H](Cc2ccc(O)cc2)NC(=O)[C@H](CC(C)C)NC(=O)[C@H](CC(C(=O)O)C(=O)O)NC(=O)CSC[C@@H](C(N)=O)NC(=O)[C@H](Cc2ccc(O)cc2)NC1=O [Example 1, cyclo(CH2CO-Gla^1-Leu^2-Tyr^3-Glu^4-Asn^5-Val^6-Gly^7-Met^8-Tyr^9-Cys)-amide] ({CH2CO}-[Gla]LYENVGMYC-NH2; thioether N-10) | 50 |  |  |  |
|  |  | CSCC[C@@H]1NC(=O)CNC(=O)[C@H](C(C)C)NC(=O)[C@H](CC(N)=O)NC(=O)[C@H](CCC(=O)O)NC(=O)[C@H](Cc2ccc(O)cc2)NC(=O)[C@H](CC(C)C)NC(=O)[C@H](CC(C(=O)O)C(=O)O)NC(=O)CSC[C@@H](C(=O)N[C@@H](C)C(=O)N[C@@H](C)C(=O)N[C@H](C(=O)N[C@@H](C)C(=O)N[C@@H](CC(C)C)C(=O)N[C@@H](CC(C)C)C(=O)N2CCC[C@H]2C(=O)N[C@@H](C)C(=O)N[C@H](C(=O)N[C@@H](CC(C)C)C(=O)N[C@@H](CC(C)C)C(=O)N[C@@H](C)C(=O)N[C@@H](CC(C)C)C(=O)N[C@@H](CC(C)C)C(=O)N[C@@H](C)C(=O)N2CCC[C@H]2C(N)=O)C(C)C)C(C)C)NC(=O)[C@H](Cc2ccc(O)cc2)NC1=O [Example 12, cyclo(CH2CO-Gla^1-Leu^2-Tyr^3-Glu^4-Asn^5-Val^6-Gly^7-Met^8-Tyr^9-Cys)-NH-Ala-Ala-Val-Ala-Leu-Leu-Pro-Ala-Val-Leu-Leu-Ala-Leu-Leu-Ala-Pro] ({CH2CO}-[Gla]LYENVGMYCAAVALLPAVLLALLAP-NH2; thioether N-10) | 2 | clear dose-dependent reduction | 2000 |  |
|  |  | SHC(pY^317)-9-mer: segment of the naturally phosphorylated ligand (DDPS[pY]VNVQ) |  |  |  | 1000 |
